Values after ≈ are worked out from the molar mass of the structure shown.
Key:
benzodiazepine receptors [1] = assay: displacement of 3H-flunitrazepam from benzodiazepine receptors in vitro (rat forebrain membranes); details: 50% displacement of specific 3H-flunitrazepam binding (1.0 nM, 0° C.), brain membranes of rats, pH 7.1
[2] = system: spasms induced by pentylenetrazole (pentazol); assay: PTZ spasms antagonism (protection from pentylenetrazole-induced spasms and death); parameters: species or system mice; details: Mus musculus, ip, 0.5 h; protects 50% of animals from spasms and death; test substance i.p. 15-30 minutes before pentazol 150 mg/kg s.c.; Litchfield and Wilcoxon; read-out: PTZ (ED50) mg/kg in vivo
Description: The compounds according to the invention especially show anxiolytic and anticonvulsive effectiveness. […] Pentazol is administered subcutaneously in an amount of 150 mg/kg as hydrochloric acid solution (pH 2-3) 15-30 minutes after the intraperitoneal application of the test substance. This amount induces clonic and tonic spasms, which lead to death in untreated animals. The number of mice which show spasms and the number of them that died 30 minutes after pentazol are recorded (PTZ spasms antagonism).
The ED50 values indicated in the table were determined according to the method of Litchfield and Wilcoxon (J. Pharmacol. exp. Ther. 96 (1949) […]) as the amount of antagonistically acting substance which protects 50% of the animals from spasms and death.

benzodiazepine receptors [3] = assay: displacement of 3H-flunitrazepam from benzodiazepine receptors in live brain, in vivo; details: reduction of specific flunitrazepam binding in live brain to 50% of control; normally intraperitoneal; 3H-flunitrazepam i.v. after 15 minutes, forebrain removed after another 20 minutes

| SMILES | IC50 (ng/ml) in vitro (benzodiazepine receptors [1]) | ED50 [2] | ED50 (mg/kg) in vivo (benzodiazepine receptors [3]) |
| --- | --- | --- | --- |
| CCc1noc(-c2ncc3[nH]c4ccc(Oc5ccccc5)cc4c3c2C)n1 [6-Phenoxy, CH3, drawing 14, 6-phenoxy-4-methyl-3-(3-ethyl-1,2,4-oxadiazol-5-yl)-beta carboline] | 3.2 ng/mL (≈ 8.64 nM) | 2.4 mg/kg | 2.6 mg/kg |
| CCOC(=O)c1ncc2[nH]c3cccc(Oc4ccc(Cl)cc4Cl)c3c2c1COC [5-(2,4-dichlorophenoxy)-4-methoxymethyl-beta-carboline-3-carboxylic acid ethyl ester] | 2.9 ng/mL (≈ 6.51 nM) | 4 mg/kg | 3.2 mg/kg |
| CCOC(=O)c1ncc2[nH]c3cccc(Oc4ccccc4)c3c2c1COC [5-Phenoxy, CH2 OCH3, COOEt, 5-Phenoxy-4-methoxymethyl-beta-carboline-3-carboxylic acid ethyl ester] | 0.3 ng/mL (≈ 0.797 nM) | 18 mg/kg | 0.4 mg/kg |
| COCc1c(C(=O)OC(C)C)ncc2[nH]c3ccc(Oc4ccccc4[N+](=O)[O-])cc3c12 [6-(2-nitrophenoxy)-4-methoxymethyl-beta-carboline-3-carboxylic acid isopropyl ester] | 0.33 ng/mL (≈ 0.758 nM) | 13 mg/kg | 1.8 mg/kg |
| CCc1noc(-c2ncc3[nH]c4ccc(Oc5ccc(C(C)=O)cc5)cc4c3c2COC)n1 [6-(4-acetylphenoxy), CH2 OCH3, drawing 11, 6(4-acetylphenoxy)-4-methoxymethyl-3-(3-ethyl-1,2,4-oxadizaol-5-yl)-beta-carboline] | 0.45 ng/mL (≈ 1.02 nM) | 0.3 mg/kg | 7.7 mg/kg |
| COCc1c(C(=O)OC(C)C)ncc2[nH]c3cccc(Oc4ccccc4Cl)c3c12 [5-(2-Cl-Phenoxy), CH2 OCH3, COOCH(CH3)2] | 2.6 ng/mL (≈ 6.12 nM) | 4 mg/kg | 19 mg/kg |
| CCc1noc(-c2ncc3[nH]c4cccc(Oc5ccccc5Cl)c4c3c2COC)n1 [5-(2-Cl-Phenoxy), CH2 OCH3, drawing 10] | 3.1 ng/mL (≈ 7.13 nM) | 0.8 mg/kg | 11 mg/kg |
| CCc1noc(-c2ncc3[nH]c4cccc(Oc5ccccc5)c4c3c2C)n1 [5-Phenoxy, CH3, drawing 13, 5-phenoxy-4-methyl-3-(3-ethyl-1,2,4-oxadizaol-5-yl)-beta-carboline] | 4.3 ng/mL (≈ 11.6 nM) | 2 mg/kg | 3.9 mg/kg |
| CCOC(=O)c1ncc2[nH]c3cccc(Oc4ccccc4)c3c2c1C [5-Phenoxy, CH3, COOC2 H5, 5-phenoxy-4-methyl-beta-carboline-3-carboxylic acid ethyl ester, reference compound] | 2.0 ng/mL (≈ 5.77 nM) | > 30 mg/kg | 2.8 mg/kg |
| CCc1noc(-c2ncc3[nH]c4cccc(Oc5ccccc5)c4c3c2COC)n1 [5-Phenoxy, CH2 OCH3, drawing 12, 5-phenoxy-4-methoxymethyl-3-(3-ethyl-1,2,4-oxadiazol-5-yl)-beta carboline] | 0.6 ng/mL (≈ 1.5 nM) | 0.1 mg/kg | 0.3 mg/kg |
| COCc1c(C(=O)OC(C)C)ncc2[nH]c3ccc(Oc4cccc(Cl)c4C#N)cc3c12 [6-(2-cyano-3-chlorophenoxy)-4-methoxymethyl-beta-carboline-3-carboxylic acid isopropyl ester] | 0.67 ng/mL (≈ 1.49 nM) | 1 mg/kg | 3.0 mg/kg |
| COCc1c(C(=O)OC(C)C)ncc2[nH]c3ccc(Oc4ccccc4C#N)cc3c12 [6-(2-cyanophenoxy)-4-methoxymethyl-beta-carboline-3-carboxylic acid isopropyl ester] | 0.29 ng/mL (≈ 0.698 nM) | 4 mg/kg | 3.8 mg/kg |

Source: patent US4945090A, “Phenoxy-substituted beta-carboline derivatives, their production and their use as drugs” (Schering Aktiengesellschaft, priority 1985, dated 1990)
